In patent US8183275B2, “Substituted imidazoles as bombesin receptor subtype-3 modulators” (Merck Sharp & Dohme Corp., priority 2006, dated 2012):
pIC50: −log10 of the molar value.

target: T1, human BRS-3 (Homo sapiens, UniProt P32247); assay: Bombesin Receptor Subtype 3 (BRS3) binding assay (radioligand filtration); settings: BRS-3 Receptor Binding Activity for Selected Compounds
T1 construct: expressed in transfected cells
T1 sequence (P32247 1-399): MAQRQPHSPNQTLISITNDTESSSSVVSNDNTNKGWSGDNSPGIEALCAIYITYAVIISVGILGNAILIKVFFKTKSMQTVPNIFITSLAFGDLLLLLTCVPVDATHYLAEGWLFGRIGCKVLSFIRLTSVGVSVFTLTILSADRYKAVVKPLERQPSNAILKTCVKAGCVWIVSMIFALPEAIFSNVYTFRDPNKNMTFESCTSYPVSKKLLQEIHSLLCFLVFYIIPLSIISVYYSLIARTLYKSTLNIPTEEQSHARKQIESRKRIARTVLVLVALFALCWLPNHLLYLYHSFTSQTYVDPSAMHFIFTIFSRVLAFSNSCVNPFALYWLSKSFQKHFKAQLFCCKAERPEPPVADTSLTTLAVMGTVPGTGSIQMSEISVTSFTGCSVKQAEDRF
Experimental: Dissociated cells were collected by centrifuging at 1000 rpm for 10 minutes. Cell pellets were resuspended and homogenized at 4° C. using a Polytron homogenizer (setting 40, 20 stokes) in approximately 10 mL membrane preparation buffer (10 mM Tris pH 7.4, 0.01 mM Pefabloc, 10 μM phosphoramidon and 40 μg/mL Bacitracin) per T175 flask. After centrifugation at 2200 rpm (1000×g) for 10 minutes at 4° C., the supernatant was transferred to a clean centrifuge tube and spun at 18,000 rpm (38,742×g) for 15 minutes. at 4° C. […]
The radioligand, [^3H]-1-{4-[(4,5-difluoro-2-hydroxycarbonylphenyl)phenyl])-2-(4-cyclohexylmethyl-1H-imidazol-2-yl)ethane, was used for binding to receptor membranes generated with BRS3 from other species and was also utilized for the human receptor. […] After incubation for 1-2 hours at room temperature, membrane bound [^3H]-biphenyl was separated from free radiologand by filtering through GF/C filters presoaked in 1% PEI solution. The filters were washed five times with ice-cold washing buffer (50 mM Tris pH 7.4, 10 mM MgCl2, 2.5 mM EDTA and 0.02% Triton X-100). The radioactivity was determined by adding 30 μl of microscintillant/well after each plate was dried at room temperature overnight or placed at 50° C. for 1 hr.
A Packard Top Count was used to read the filter plates. The data in % inhibition of binding was plotted vs. the log molar concentration of receptor ligand (compound). The IC50 was reported as the inflection point of the resulting sigmoidal curve.

| Compound | pIC50 |
| --- | --- |
| CCC(C)(C)Cc1c[nH]c(CCc2ccc(N3CCCC[C@@H]3C(=O)O)cc2)n1 [Example 225, (R)-N-(4-{2-[4-(2,2-Dimethylbutyl)-1H-imidazol-2-yl]ethyl}phenyl)piperidine-2-carboxylic acid] | 7.74 |
| CCC(C)(C)Cc1c[nH]c(CCc2ccc(-c3ccccc3OCc3nn[nH]n3)cc2)n1 [Example 246, 5-(4′-{2-[4-(2,2-Dimethylbutyl)-1H-imidazol-2-yl]ethyl}biphenyl-2-yloxymethyl)-1H-tetrazole] | 8.28 |
| CCC(C)(C)Cc1c[nH]c(CCc2ccc(-n3cccn3)cc2)n1 [Example 205, 1-(4-{2-[4-(2,2-dimethylbutyl)-1H-imidazol-2-yl]ethyl}phenyl)-1H-pyrazole] | 7.48 |
| O=C(O)c1cc(F)c(F)cc1-c1ccc(CCc2nc(CC3CCCCC3)c[nH]2)cc1 [Example 94] | 7.70 |
| CC(C)(C)Cc1cnc(CCc2ccc(-c3ccccc3C(=O)O)cc2)[nH]1 [Example 1, 4′-{2-[4-(2,2-Dimethylpropyl)-1H-imidazol-2-yl]ethyl}biphenyl-2-carboxylic Acid] | 7.42 |
| CC(C)(C)Cc1cnc(CCc2ccc(-c3ccccn3)cc2)[nH]1 [Example 240, 2-(4-{2-[4-(2,2-Dimethylpropyl)-1H-imidazol-2-yl]ethyl}phenyl)pyridine] | 6.94 |
| CCC(CF)(CF)Cc1cnc(CCc2ccc(-c3ccc(F)cn3)cc2)[nH]1 [Example 237, 2-(4-{2-[5-(2,2-Bis(fluoromethyl)butyl)-1H-imidazol-2-yl]ethyl}phenyl)-5-fluoro-pyridine] | 7.82 |
| CCC(C)(C)Cc1c[nH]c(CCc2ccc(-c3cccc(C)n3)cc2)n1 [Example 110] | 8.20 |
| O=C(O)c1ccccc1-c1ccc(CCc2ncc(CC3CCCC3)[nH]2)cc1 [Example 26] | 6.93 |
| CCC(C)(C)Cc1c[nH]c(CCc2ccc(N3CCCc4cn[nH]c43)cc2)n1 [Example 226, 7-(4-{2-[5-(2,2-Dimethylbutyl)-1H-imidazol-2-yl]ethyl}phenyl)-4,5,6,7-tetrahydro-1H-pyrazolo[3,4-b]pyridine] | 7.74 |
| CC(C)(Cc1cnc(CCc2ccc(-c3ccc(F)cn3)cc2)[nH]1)C1CC1 [Example 236, 2-(4-{2-[5-(2-Cyclopropyl-2-methylpropyl)-1H-imidazol-2-yl]ethyl}phenyl)-5-fluoropyridine] | 7.60 |
| CCC(C)(C)Cc1c[nH]c(CCc2ccc(C3CCCCC3C(=O)O)cc2)n1 (stereo not shown) [Example 227, 2-(4-{2-[4-(2,2-Dimethylbutyl)-1H-imidazol-2-yl]ethyl}phenyl)cyclohexanecarboxylic acid] | 8.55 |
| CCC(C)(C)Cc1c[nH]c(CCc2ccc(-c3cccc4cn[nH]c34)cc2)n1 [Example 221] | 8.32 |
